Data published in patent publication US9611273B2, “Trioxane thioacetal monomers and dimers and methods of use thereof” (THE JOHNS HOPKINS UNIVERSITY, priority 2012, dated 2017).

What was measured:
[1] = system: P. berghei malaria parasites; assay: In vivo antimalarial efficacy, single oral dose of trioxane plus mefloquine hydrochloride in P. berghei-infected mice; settings: for mouse survival post infection: single oral dose 6 mg/kg trioxane plus 18 mg/kg mefloquine, or 18 mg/kg mefloquine alone; for % suppression of parasitemia (on day 3 post infection) / average survival (days) after infection: single oral dose of 6 mg/kg trioxane and 18 mg/kg mefloquine hydrochloride (control: mefloquine-HCl only), P. berghei-infected mice; for average survival (days) after infection: groups of 4
Procedure: Using a standard protocol, see Slack, et al., 2012, 20-gram mice were infected by intraperitonial injection with P. berghei malaria parasites. One day after infection, each mouse in groups of 4 mice received a single oral dose of 6 mg/kg body weight of a trioxane thioacetal combined with 18 mg/kg of the long-lived antimalarial mefloquine hydrochloride. In all cases, parasitemia was decreased by at least 99% on day 3 post infection. Malaria-infected mice receiving no antimalarial drug died on day 6 or 7 post infection. Critically, control groups of mice receiving 6 mg/kg of the popular trioxane drug artemether (2b) plus 18 mg/kg of mefloquine, or just 18 mg/kg of mefloquine alone, survived for about 3 weeks post infection. In contrast, several of the presently disclosed trioxane thioacetals prolonged mouse survival for longer than 3 weeks, and in some instances produced partial cures; for example, 2 of 4 mice in one group (diisopropyl carbamate 3u) appeared healthy and had no detectable parasitemia on day 30 post infection.
The antimalarial efficacy of representative presently disclosed C-10 thioacetals, as well as controls, is summarized in Table 1, which includes the parasitemia levels for mice on day 3 post-infection.

P388 leukemia = settings: NCI Report on NSC 369397, tested on 25 Oct. 1983; cited from earlier work
[2] = single oral dose 6 mg/kg plus 18 mg/kg mefloquine hydrochloride

| Compound | antimalarial efficacy in words [1, 2] | % suppression of parasitemia (on day 3 post infection) [1] | average survival (days) after infection [1] | also measured |
| --- | --- | --- | --- | --- |
| C[C@H]1[C@H](SCCCOCc2ccc(F)cc2)O[C@@H]2O[C@]3(C)CC[C@H]4[C@H](C)CC[C@@H]1[C@@]24OO3 [3h, Art-10α-S(CH2)3OCH2PhF-4] | most highly efficacious |  |  |  |
| C[C@H]1[C@H](SCCCOCn2nnc3ccccc32)O[C@@H]2O[C@]3(C)CC[C@H]4[C@H](C)CC[C@@H]1[C@@]24OO3 [3k, Art-10α-S(CH2)3OCH2—N-benzotriazole] | most highly efficacious |  |  |  |
| CC(C)N(C(=O)OCCCS[C@@H]1O[C@@H]2O[C@]3(C)CC[C@H]4[C@H](C)CC[C@@H]([C@H]1C)[C@@]24OO3)C(C)C [3u, AMJ-Art-10α-S(CH2)3OC(O)N(iPr)2] | most highly efficacious |  |  | mice appearing healthy with no detectable parasitemia on day 30 post infection (partial cure) ([1]; single oral dose 6 mg/kg plus 18 mg/kg mefloquine hydrochloride, group of 4 mice): 2 of 4 |
| CO[C@H]1O[C@@H]2O[C@@]3(C)CC[C@H]4[C@H](C)CC[C@@H]([C@H]1C)[C@@]24OO3 [artemether, reference compound] |  |  |  | mouse survival post infection [1]: about 3 weeks |
| C[C@@H]1CC[C@H]2[C@@H](C)C(=O)O[C@@H]3O[C@@]4(C)CC[C@@H]1[C@]32OO4 [artemisinin] |  |  |  | activity against P388 leukemia (P388 leukemia): inactive |
| CSC(=O)OCCCS[C@@H]1O[C@@H]2O[C@@]3(C)CC[C@H]4[C@H](C)CC[C@@H]([C@H]1C)[C@@]24OO3 [compound 109, Art-10α-S(CH2)3OC(O)SCH3] |  | >99.9% | 24.5 days |  |
| CCCSC(=O)OCCCS[C@@H]1O[C@@H]2O[C@@]3(C)CC[C@H]4[C@H](C)CC[C@@H]([C@H]1C)[C@@]24OO3 [compound 110, Art-10α-S(CH2)3OC(O)SnPr] |  | >99.9% | 19.3 days |  |
| C[C@H]1[C@H](SCCCOC(=O)SC(C)(C)C)O[C@@H]2O[C@@]3(C)CC[C@H]4[C@H](C)CC[C@@H]1[C@@]24OO3 [compound 111, Art-10α-S(CH2)3OC(O)StBu] |  | 99.9% | 29.8 days |  |
| CSC(=S)OCCCS[C@@H]1O[C@@H]2O[C@]3(C)CC[C@H]4[C@H](C)CC[C@@H]([C@H]1C)[C@@]24OO3 [compound 114, Art-10α-S(CH2)3OC(S)SCH3] |  | 99.9% | 22.0 days |  |
| Cl.OC(c1cc(C(F)(F)F)nc2c(C(F)(F)F)cccc12)C1CCCCN1 (centres unmarked) [mefloquine-HCl only, mefloquine hydrochloride, reference compound] |  | >99.9% | 14.0 days | mouse survival post infection [1]: about 3 weeks |
